Measured values published in ChEMBL document CHEMBL1122669, “Hypolipidemic activity of phthalimide derivatives. 7. Structure-activity studies of indazolone analogues” (1984).

Key:
Format in all cases: functional
Mus musculus [1] = assay: Reduction of serum cholesterol in CF1 male mice on day 16 following 20 mg/kg/day i.p. administration.; details: route intraperitoneal
Mus musculus [2] = assay: Reduction of serum cholesterol in CF1 male mice on day 9 following 20 mg/kg/day i.p. administration.; details: route intraperitoneal
Mus musculus [3] = assay: Reduction of serum triglycerides in CF1 male mice on day 16 following 20 mg/kg/day i.p. administration.; details: route intraperitoneal
Mus musculus [4] = assay: Hypolipidemic effects in CF1 male mice at a dose 150 mg/(kg day), ip, percent control of serum triglyceride was determined on day 16
Mus musculus [5] = assay: Hypolipidemic effects in CF1 male mice at a dose 150 mg/(kg day), ip, percent control of serum cholesterol was determined on day 16
Mus musculus [6] = assay: Hypolipidemic effects in CF1 male mice at a dose 150 mg/(kg day), ip,percent control of serum cholesterol was determined on day 9

## O=c1c2ccccc2[nH]n1Cc1ccccc1
Mus musculus [1]
  Serum cholesterol, percent of control: 72%
Mus musculus [2]
  Serum cholesterol, percent of control: 83%
Mus musculus [3]
  Serum triglycerides, % of control: 58%

## Oc1n[nH]c2ccccc12
Mus musculus [1]
  Serum cholesterol, percent of control: 80%
Mus musculus [2]
  Serum cholesterol, percent of control: 96%
Mus musculus [3]
  Serum triglycerides, % of control: 75%

## Cn1[nH]c2ccccc2c1=O
Mus musculus [1]
  Serum cholesterol, percent of control: 69%
Mus musculus [2]
  Serum cholesterol, percent of control: 92%
Mus musculus [3]
  Serum triglycerides, % of control: 72%

## CCCCn1[nH]c2ccc(C)cc2c1=O
Mus musculus [1]
  Serum cholesterol, percent of control: 97%
Mus musculus [2]
  Serum cholesterol, percent of control: 95%
Mus musculus [3]
  Serum triglycerides, % of control: 81%

## CCn1[nH]c2ccccc2c1=O
Mus musculus [1]
  Serum cholesterol, percent of control: 71%
Mus musculus [2]
  Serum cholesterol, percent of control: 98%
Mus musculus [3]
  Serum triglycerides, % of control: 71%

## CC(=O)c1ccc(Cn2[nH]c3ccccc3c2=O)cc1
Mus musculus [1]
  Serum cholesterol, percent of control: 75%
Mus musculus [2]
  Serum cholesterol, percent of control: 76%
Mus musculus [3]
  Serum triglycerides, % of control: 50%

## CCCCn1[nH]c2cc(Cl)ccc2c1=O
Mus musculus [1]
  Serum cholesterol, percent of control: 75%
Mus musculus [2]
  Serum cholesterol, percent of control: 98%
Mus musculus [3]
  Serum triglycerides, % of control: 69%

## CC(=O)CCn1[nH]c2ccccc2c1=O
Mus musculus [1]
  Serum cholesterol, percent of control: 46%
Mus musculus [2]
  Serum cholesterol, percent of control: 78%
Mus musculus [3]
  Serum triglycerides, % of control: 46%

## CCCn1[nH]c2ccccc2c1=O
Mus musculus [1]
  Serum cholesterol, percent of control: 68%
Mus musculus [2]
  Serum cholesterol, percent of control: 92%
Mus musculus [3]
  Serum triglycerides, % of control: 77%

## CC(=O)c1ccccc1Cn1[nH]c2ccccc2c1=O
Mus musculus [1]
  Serum cholesterol, percent of control: 60%
Mus musculus [2]
  Serum cholesterol, percent of control: 98%
Mus musculus [3]
  Serum triglycerides, % of control: 41%

## O=c1c2ccccc2[nH]n1CCO
Mus musculus [1]
  Serum cholesterol, percent of control: 83%
Mus musculus [2]
  Serum cholesterol, percent of control: 97%
Mus musculus [3]
  Serum triglycerides, % of control: 63%

## CCCCn1[nH]c2ccccc2c1=O
Mus musculus [1]
  Serum cholesterol, percent of control: 46%
Mus musculus [2]
  Serum cholesterol, percent of control: 92%
Mus musculus [3]
  Serum triglycerides, % of control: 44%

## CC(=O)c1cccc(Cn2[nH]c3ccccc3c2=O)c1
Mus musculus [1]
  Serum cholesterol, percent of control: 70%
Mus musculus [2]
  Serum cholesterol, percent of control: 86%
Mus musculus [3]
  Serum triglycerides, % of control: 56%

## CCCCn1[nH]c2ccc(Cl)cc2c1=O
Mus musculus [1]
  Serum cholesterol, percent of control: 74%
Mus musculus [2]
  Serum cholesterol, percent of control: 76%
Mus musculus [3]
  Serum triglycerides, % of control: 83%

## O=c1c2ccccc2[nH]n1CCCO
Mus musculus [1]
  Serum cholesterol, percent of control: 83%
Mus musculus [2]
  Serum cholesterol, percent of control: 96%
Mus musculus [3]
  Serum triglycerides, % of control: 72%

## CCCCCn1[nH]c2ccccc2c1=O
Mus musculus [1]
  Serum cholesterol, percent of control: 73%
Mus musculus [2]
  Serum cholesterol, percent of control: 79%
Mus musculus [3]
  Serum triglycerides, % of control: 77%

## CCOC(=O)n1[nH]c(=O)c2ccccc21
Mus musculus [1]
  Serum cholesterol, percent of control: 60%
Mus musculus [2]
  Serum cholesterol, percent of control: 78%
Mus musculus [3]
  Serum triglycerides, % of control: 61%

## CCOC(=O)n1c2ccccc2c(=O)n1CCC(=O)O
Mus musculus [1]
  Serum cholesterol, percent of control: 77%
Mus musculus [2]
  Serum cholesterol, percent of control: 88%
Mus musculus [3]
  Serum triglycerides, % of control: 70%

## CCOC(=O)C(C)(C)Oc1ccc(Cl)cc1 [CLOFIBRATE]
Mus musculus [4]
  Control: 75%
Mus musculus [5]
  Control: 87%
Mus musculus [6]
  Control: 92%

## O=C1NC(=O)c2ccccc21 [PHTHALIMIDE]
Mus musculus [1]
  Serum cholesterol, percent of control: 57%
Mus musculus [2]
  Serum cholesterol, percent of control: 63%
Mus musculus [3]
  Serum triglycerides, % of control: 44%
